We go through two molecules from patent US20230061319A1, “METHODS OF TREATING TUMORS” (CoImmune, Inc., priority 2020, published 2023).

The subject of test [1] is human tumor cell lines. Conditions: broad range of human tumor cell lines; cited from earlier work.
Test [2] has as its system human tumor cell lines. Conditions: xenografts of human tumor cell lines; cited from earlier work.
Test [3] concerns MART-1 specific CTLs. As to the kind of experiment: Priming of MART-1 specific CTLs by PME-CD40L DCs in the presence of mTOR inhibitors. The class given is cell-based, human. To be noted: in the presence of the mTOR inhibitor, 10 ng/ml to 1 ug/ml. Here is the method: 300 x 10^6 peripheral blood mononuclear cells (PBMCs) were cultured in 30 mL AIM-V media (Thermo Fisher Scientific) in T150 flasks (Corning) for 2 hours to provide for the adherence of monocytes. Non-adherent cells were removed by washing the monolayers twice with cold phosphate buffered saline (PBS) (Cambrex), and the remaining monocytes were cultured in X-VIVO 15 medium (Cambrex) for 5 days, supplemented with 1000 U/mL each of granulocyte macrophage-colony stimulating factor (GM-CSF) (Bayer AG, Leukine® liquid) and IL-4 (R&D Systems). To achieve DC maturation, immature DCs were first cultured on day 5 with 10 ng/mL tumor necrosis factor alpha (TNF-α) (R&D Systems), 1000 µ/mL interferon gamma (IFN-y) (Actimmune), and 1 µg/mL prostaglandin E2 (PGE2) (Sigma). On day 6, phenotypically mature DCs were co-electroporated with RNA encoding CD40L (Argos Lot No. 101606 JSC) at a concentration of 3 ug per million DCs plus either human cytomegalovirus (CMV) pp65 or MART-1 encoding RNAs at 2 µg per million DCs (CMVpp65 RNA-Argos Lot No 071107XF, MART-1-APL RNA-Argos Lot No. 011909HC). […]
PME-CD40L DCs derived from HLA-A2-positive donors and transfected with antigen-encoding mRNAs were co-cultured with purified CD8^+ T cells. […] Induction of primary immune responses to MART-1 and memory/recall responses to CMV pp65 were measured on day 10. […]

Test [4] relates to CMV pp65 specific CTLs. Briefly: CMV pp65 specific recall CTL effector function (IFN-γ, TNF-α, IL-2 secretion, CD107a expression). Type of test: cell-based, human. As for the experimental part: (§1) PME-CD40L DCs derived from HLA-A2-positive donors and transfected with antigen-encoding mRNAs were co-cultured with purified CD8^+ T cells. All co-cultures were performed in R-10 media. CD8^+ T cells were purified using the CD8+ T Cell Negative Selection Kit II (Miltenyi Biotec) from non-adherent cells harvested from the monocyte adherence step. The CD8^+ cells were mixed with DCs at a 10:1 ratio and incubated in the presence of 0.2 µg/mL IL-2 and 10 ng/mL IL-7 (R&D Systems). DC/T cell co-cultures were re-stimulated on day 7 and supplemented with 20 units/mL IL-2 plus 10 ng/mL IL-7. Induction of primary immune responses to MART-1 and memory/recall responses to CMV pp65 were measured on day 10.
(§2) To identify antigen-specific T cell responses and the phenotype of the antigen specific cells, T cells were harvested on day 10 post-stimulation and incubated with peptide-pulsed T2 target cells at a ratio of 10:1 for 4 hour with Brefeldin A, Monensin (BD Biosciences) and CD107a PE-Cy5. […] After 4 hours of co-culture, responder T cells were stained for 10 minutes with the requisite peptide/pentamer reagent, then washed once and re-stained with CD8-Eflour605, CD45RA-FITC, and CD28-APC. Cells were then washed in PBS and stained with Aquadye (BD Biosciences) for analysis of viability. Labeled cells were then fixed and permeabilized in Fixation/Permeabilization solution (eBiosciences). Cells where then stained with IFN-γ-PECy7, TNFa-AF700 and IL-2-PerCPcy5.5 in permeabilization buffer and resuspended in FACs buffer prior to acquisition.
To assess the impact mTOR inhibition would have on CTL effector function in vitro, CMV pp65 specific CTLs were assayed for the ability to secret the cytokines IFN-y, TNF-α and IL-2, and express the degranulation marker CD107a, which serves as a surrogate marker to measure lytic activity. Data presented in FIG. 2A and FIG. 2B measures the absolute numbers of CMV […] specific CTLs that secrete IFN-y, TNF-α or IL-2, or express CD107a in response to CMV pp65 peptide pulsed target cells. The absolute numbers of CMV^+ CTLs shown have been corrected for background non-specific responses to display only the antigen specific response for each parameter.

Test [5] has as its system MART-1 specific CTLs. Briefly: MART-1 specific CTL effector function (IFN-γ, TNF-α, IL-2 secretion, CD107a expression). The class given is cell-based, human. To be noted: at the higher concentrations tested; compared to untreated CTLs. Here is the method:
as §1
as §2, with “Cells where then stained with IFN-γ-PECy7, TNFa-AF700 and IL-2-PerCPcy5.5 in permeabilization buffer and resuspended in FACs buffer prior to acquisition.” left out

Test [6] deals with CMV pp65 specific CTLs. Briefly: Induction of CMV pp65 specific recall CTLs by PME-CD40L DCs in the presence of mTOR inhibitors. The class given is cell-based, human. As for the experimental part:
300 x 10^6 peripheral blood mononuclear cells (PBMCs) were cultured in 30 mL AIM-V media (Thermo Fisher Scientific) in T150 flasks (Corning) for 2 hours to provide for the adherence of monocytes. Non-adherent cells were removed by washing the monolayers twice with cold phosphate buffered saline (PBS) (Cambrex), and the remaining monocytes were cultured in X-VIVO 15 medium (Cambrex) for 5 days, supplemented with 1000 U/mL each of granulocyte macrophage-colony stimulating factor (GM-CSF) (Bayer AG, Leukine® liquid) and IL-4 (R&D Systems). To achieve DC maturation, immature DCs were first cultured on day 5 with 10 ng/mL tumor necrosis factor alpha (TNF-α) (R&D Systems), 1000 µ/mL interferon gamma (IFN-y) (Actimmune), and 1 µg/mL prostaglandin E2 (PGE2) (Sigma). On day 6, phenotypically mature DCs were co-electroporated with RNA encoding CD40L (Argos Lot No. 101606 JSC) at a concentration of 3 ug per million DCs plus either human cytomegalovirus (CMV) pp65 or MART-1 encoding RNAs at 2 µg per million DCs (CMVpp65 RNA-Argos Lot No 071107XF, MART-1-APL RNA-Argos Lot No. 011909HC). Generation of MART-1 RNA and CD40L RNA is described in e.g., DeBenedette et al., J. Immunol. 181(8):5296-5305 (2008).
Electroporated DCs were cultured for an additional 4 hours in X-VIVO 15 media supplemented with 800 µ/mL GM-CSF and 500 µ/mL IL-4 at 1 x 10^6 DCs/mL in low adherence 6-well plates (Costar). After 4 hr, the DCs were harvested by washing with cold PBS and prepared as a frozen formulation at 10 x 10^6 DCs/mL in 20% DMSO and 80% FBS, representing antigen electroporated Post Maturation Electroporated (PME)-CD40L DC preparations.
as §1, §2
CD8^+ cytotoxic T lymphocyte (CTL) responses were used to measure the pp65 CMV recall response induced by PME-CD40L DCs in the presence of mTOR inhibitors everolimus and temsirolimus. PME-CD40L DCs encoding CMV pp65 were used to stimulate recall CTL responses in the presence of the mTOR inhibitors under evaluation for compatibility with the CMN-001 product. The expansion of recall CTLs specific for CMV pp65 was determined on day 3 after a second weekly stimulation with PME-CD40L DCs.

The mark [7] stands for this setting: 10 ng/ml, compared to DC/CTL co-cultures without mTOR inhibitor, day 3 after second weekly stimulation.

`CO[C@H]1C[C@@H]2CC[C@@H](C)[C@@](O)(O2)C(=O)C(=O)N2CCCC[C@H]2C(=O)O[C@H]([C@H](C)C[C@@H]2CC[C@@H](OP(C)(C)=O)[C@H](OC)C2)CC(=O)[C@H](C)/C=C(\C)[C@@H](O)[C@@H](OC)C(=O)[C@H](C)C[C@H](C)/C=C/C=C/C=C/1C` [Ridaforolimus, ridaforolimus]: the “antiproliferative activity in vitro” value with human tumor cell lines [1] was “antiproliferative activity”. In addition, the “antiproliferative activity in murine tumor xenograft models” value in the test with human tumor cell lines [2] is “antiproliferative activity”.
For `CO[C@H]1C[C@@H]2CC[C@@H](C)[C@@](O)(O2)C(=O)C(=O)N2CCCC[C@H]2C(=O)O[C@H]([C@H](C)C[C@@H]2CC[C@@H](OC(=O)C(C)(CO)CO)[C@H](OC)C2)CC(=O)[C@H](C)/C=C(\C)[C@@H](O)[C@@H](OC)C(=O)[C@H](C)C[C@H](C)/C=C/C=C/C=C/1C` [temsirolimus], in the test on MART-1 specific CTLs [3], the “priming of MART-1 specific CTLs by PME-CD40L DC” value is reported as “able to prime”. In addition, the “numbers of CMV+ CTL secreting a cytokine or expressing CD107a” value in the test with CMV pp65 specific CTLs [4] (10 ng/ml, compared to untreated CTLs) is “increased”. In addition, the “increase in effector function of CMV+ CTL” value in the test with CMV pp65 specific CTLs [4] (1 µg/ml) is listed as “maintained”. For the same molecule, in the test with MART-1 specific CTLs [5], the “numbers of MART-1+ CTL secreting a cytokine or expressing CD107a” value is listed as “increased”. Also, in the test with CMV pp65 specific CTLs [6] (setting [7]), the “numbers of CMV pp65 specific CTLs” value is on record as “increase” and the “percentage of CMV pp65 specific CTLs” value is given as “increase”. For the same molecule, in the test with CMV pp65 specific CTLs [6] (1 µg/ml), the “increase in absolute numbers of CMV+ CTL” value is reported as “evident” and the “increase in percentage of CMV+ CTL” value was “evident”.
